Test results from the NIST ThermoML archive (doi:10.1021/je900307z).
Numbers after ± are expanded uncertainties.

Assays:
[1] = 101.33 kPa, Liquid; for viscosity: Capillary tube (Ostwald / Ubbelohde) method; for mass density: Vibrating tube method
[2] = refractive index (Na D-line) (dimensionless); conditions: 101.33 kPa, Liquid, Standard Abbe refractometry
[3] = molar heat capacity at constant pressure; conditions: 101.33 kPa, Liquid, Small sample (50 mg) DSC

SMILES | viscosity ([1]; 293.15 K) | mass density ([1]; 293.15 K) | viscosity ([1]; 313.15 K) | mass density ([1]; 313.15 K) | refractive index ([2]; 293.15 K) | refractive index ([2]; 313.15 K) | molar heat capacity at constant pressure ([3]; 288.15 K) | molar heat capacity at constant pressure ([3]; 293.15 K) | molar heat capacity at constant pressure ([3]; 298.15 K) | molar heat capacity at constant pressure ([3]; 303.15 K) | molar heat capacity at constant pressure ([3]; 308.15 K) | molar heat capacity at constant pressure ([3]; 313.15 K) | molar heat capacity at constant pressure ([3]; 318.15 K) | molar heat capacity at constant pressure ([3]; 323.15 K)
CC1COC(=O)O1 (configuration not stated) [4-methyl-1,3-dioxolan-2-one] | 2.778 ± 0.022 mPa·s | 1204.66 ± 0.18 kg/m3 | 1.909 ± 0.017 mPa·s | 1183.06 ± 0.17 kg/m3 | 1.4223 ± 0.0006 | 1.4149 ± 0.0006 | 166.28 ± 3.3 J/K/mol | 167.97 ± 3.4 J/K/mol | 169.48 ± 3.4 J/K/mol | 170.79 ± 3.4 J/K/mol | 172.22 ± 3.4 J/K/mol | 174.14 ± 3.5 J/K/mol | 175.87 ± 3.5 J/K/mol | 177.45 ± 3.5 J/K/mol
CCOC(=O)OCC [diethyl carbonate] | 0.817 ± 0.008 mPa·s | 975.84 ± 0.3 kg/m3 | 0.623 ± 0.007 mPa·s | 952.39 ± 0.3 kg/m3 | 1.3858 ± 0.0007 | 1.3764 ± 0.0007 | 210.2 ± 4.2 J/K/mol | 211.49 ± 4.2 J/K/mol | 212.46 ± 4.2 J/K/mol | 213.83 ± 4.3 J/K/mol | 214.89 ± 4.3 J/K/mol | 215.8 ± 4.3 J/K/mol | 218.55 ± 4.4 J/K/mol | 220.32 ± 4.4 J/K/mol
COC(=O)OC [dimethyl carbonate] | 0.629 ± 0.006 mPa·s | 1069.8 ± 0.37 kg/m3 | 0.494 ± 0.005 mPa·s | 1043.25 ± 0.35 kg/m3 | 1.3689 ± 0.0006 | 1.3604 ± 0.0006 | 165.51 ± 3.3 J/K/mol | 166.07 ± 3.3 J/K/mol | 167.1 ± 3.3 J/K/mol | 168.48 ± 3.4 J/K/mol | 169.72 ± 3.4 J/K/mol | 170.83 ± 3.4 J/K/mol | 172.18 ± 3.4 J/K/mol | 173.68 ± 3.5 J/K/mol
